Results reported in patent US20130059324A1, “SYSTEMS AND METHODS FOR MECHANICALLY STRAINED CELL CULTURE” (THE UNIVERSITY OF KANSAS, priority 2010, published 2013).
Like-named read-outs stand apart in the source and are kept apart here.

Experiments:
A549 cells [1] = assay: Drug exposure with or without simulated forces, 6-well Bioflex plates, live cell count and exponential growth model; format: cell-based, human; conditions: for Growth Rates, With forces / Growth Rates, Without forces: drug at IC90 for 3 days; for Growth Rates, With forces: 20% maximum strain, 15 cycles/minute; for Growth Rates, Without forces: no forces, negative = reduction in viable cell count; for Effectiveness of The Drug, Without forces (E) / Effectiveness of The Drug, With forces (Ef): percentage reduction in live cell counts; for Effectiveness of The Drug, Without forces (E): 3-day drug exposure at IC90, no forces; for Effectiveness of The Drug, With forces (Ef): 3-day drug exposure at IC90, simulated forces
Experimental: (§1) Treatments 1, 2 and 3 served as unstretched controls for Treatments 4, 5 and 6, respectively. For each cell line and drug, all treatments were independently repeated at least 3 times on different days, with 3 replicates per Treatments 1 and 4 (n=9) and 5 replicates per all other treatments (n=15).
Cells were passaged in 75 cm2 culture flasks at 37° C. in 5% CO2, and trypsinized using TryplE™ Express (Gibco) containing phenol red.
Cells were plated in 6-well Bioflex® plates (Flexcell® International Corporation, Hillsborough, N.C.). Each well of the plate has a flexible elastic membrane coated with a thin layer of type I collagen. Type I collagen was chosen since it more accurately represents the physiology of lung tumor cells in vivo. […] In Treatments 1, 2 and 3, NCI-H358 and A549 cells were plated at a density of 100,000 and 20,000 cells/well in 2 ml of corresponding media, respectively. For treatments involving simulated forces (Treatments 4-6), NCI-H358 and A549 cells were plated at a density of 170,000 and 35,000 cells/well, respectively.
(§2) After allowing the cells to adhere to the membrane for 24 hours, the plates assigned for simulated forces were stretched using the FX-4000 Tension plus unit (Flexcell® International Corporation, Hillsborough, N.C.). The Flexcell unit was configured to deliver an alternating positive and negative pressure beneath the cell culture surfaces. Negative pressure pulls the culture surface down over a stationary Delrin post on the baseplate, delivering a uniform biaxial strain to the cells, and subsequent application of positive pressure releases this distension (FIGS. 9A and 9B.) In this manner, the alternating positive and negative pressure simulates forces experienced during respiration. Culture plates experiencing forces were fitted with rubber gaskets and placed on circular loading stations in the baseplate.
After 72 hours of initial seeding, one of the five drugs was added to Treatments 3 and 6 of each cell line. […] To insure comparability, an aliquot of 1 ml of media without the drug was added to each well in Treatments 2 and 5. After adding the drug or 1 ml of media, the plates from Treatments 5 and 6 were placed back on the baseplate and subjected to the same force profile as before for the remaining 72 hours. Plates from Treatments 2 and 3 (without forces) were placed in the same incubator for the remaining 72 hours.
(§3) Cells were trypsinized and counted at the end of day 3 in Treatments 1 and 4, and at the end of day 6 in the other treatments, using a Beckman Coulter Vi-Cell Analyzer (Beckman Coulter, Fullerton, Calif.). To examine changes in morphology, microphotographs of A549 and NCI-H358 cells were taken at the end of Treatments 1, 2, 4 and 5 using an Olympus inverted microscope and a 10× objective.
The standard exponential cell growth model (28) was used to describe the changes in live cell counts after each treatment. According to this model, the cell count (e.g., N) at a particular time (e.g., t), is given by the equation:
N* is the initial cell count and λ is the cell growth rate. For each cell line, the following cell growth rates were estimated: λ=growth rate in the absence of forces and drugs, λd=growth rate in the presence of a particular drug but no forces, λXf=growth rate in the presence of forces but no drugs; and λfd=growth rate in the presence of forces and a particular drug. The growth rates λd and λfd were estimated for each tested drug. Using these growth rates and the exponential growth model, the final cell counts were mathematically modeled for each treatment under various conditions (FIG. 8). For each cell line, a linear regression model that combined the information from the 5 investigated drugs was built using Stata Statistical Software (StataCorp LP, Texas) after log-transforming the six equations listed in FIG. 8. The regression coefficients in the model were the growth rates.

NCI-H358 cells = assay: as above; format: cell-based, human; conditions: for Growth Rates, With forces / Growth Rates, Without forces: drug at IC90 for 3 days; for Growth Rates, With forces: 20% maximum strain, 15 cycles/minute; for Growth Rates, Without forces: no forces; for Effectiveness of The Drug, Without forces (E) / Effectiveness of The Drug, With forces (Ef): percentage reduction in live cell counts; for Effectiveness of The Drug, Without forces (E): 3-day drug exposure at IC90, no forces; for Effectiveness of The Drug, With forces (Ef): 3-day drug exposure at IC90, simulated forces
Text: as §1
The NCI-H358 (ATCC® CRL-5807) and A549 (ATCC® CCL-185) cell lines were obtained from American Type Culture Collection (ATCC, Manassas, Va.) and cultured in RPMI-1640 (NCI-H358) and HAM's F12K (A549) media containing 10% Fetal Bovine Serum (Sigma Aldrich, St. Louis, Mo.) and 1% Penicillin Streptomycin (Sigma Aldrich). Cells were passaged in 75 cm2 culture flasks at 37° C. in 5% CO2, and trypsinized using TryplE™ Express (Gibco) containing phenol red.
Cells were plated in 6-well Bioflex® plates (Flexcell® International Corporation, Hillsborough, N.C.). Each well of the plate has a flexible elastic membrane coated with a thin layer of type I collagen. Type I collagen was chosen since it more accurately represents the physiology of lung tumor cells in vivo. The Flexcell is not configured for drug studies as described herein, and had to be modified as described herein. […] Therefore, to have the same number of cells in culture at the time of drug exposure, initial seeding densities for treatments not involving simulated forces (Treatments 1-3) and those involving forces (Treatments 4-6) were adjusted for each cell line. In Treatments 1, 2 and 3, NCI-H358 and A549 cells were plated at a density of 100,000 and 20,000 cells/well in 2 ml of corresponding media, respectively. For treatments involving simulated forces (Treatments 4-6), NCI-H358 and A549 cells were plated at a density of 170,000 and 35,000 cells/well, respectively.
as §2, with “baseplate. […] Cells were preconditioned with mechanical forces for 48 hours, in an incubator at 37° C., 5% CO2 and 95% relative humidity.” for “baseplate.”
(§4) After 72 hours of initial seeding, one of the five drugs was added to Treatments 3 and 6 of each cell line. […] The IC90, concentration of the drug that inhibits the growth of 90% of the cells in a static monolayer culture, was used to assure a significant inhibition in the absence of simulated forces. To insure comparability, an aliquot of 1 ml of media without the drug was added to each well in Treatments 2 and 5. After adding the drug or 1 ml of media, the plates from Treatments 5 and 6 were placed back on the baseplate and subjected to the same force profile as before for the remaining 72 hours. Plates from Treatments 2 and 3 (without forces) were placed in the same incubator for the remaining 72 hours.
as §3
The standard exponential cell growth model (28) was used to describe the changes in live cell counts after each treatment. […]

[2] = system: cells in a static monolayer culture; assay: IC90 in static monolayer culture (tested concentration); format: cell-based; conditions: concentration that inhibits the growth of 90% of the cells in a static monolayer culture
Experimental: Table 1 includes a list of investigated chemotherapeutic drugs, their mechanisms of action and the tested concentrations.
as §4

A549 cells [3] = assay: Prototype 96-well plate, MTS assay with and without mechanical forces; format: cell-based, human
Experimental: (§5) The prototype plate was read using the Biotek plate reader at the wavelength of 490 nm until the media only wells absorbance reached 1.0. For the +M group plate, 30 ul of MTS was added to the assigned wells and kept in the incubator for the same amount of time that required for the −M group to develop and read at the same wavelength.

H358 cells [4] = assay: as above; format: cell-based, human; conditions: drug at IC90, 24 hours, 490 nm; for MTS absorbance after 24 hours of drug exposure, With forces (Ef): mechanical forces; for MTS absorbance after 24 hours of drug exposure, Without forces (E): no forces
Experimental: as §5

A549 cells [5] = system: A549 cells
Experimental: (§6) After allowing the cells to adhere to the flexible membrane of the 96 well plate for 24 hours, the loading pins and the system described in FIG. 7 to implement mechanical strain were used to deliver 20% maximum strain for 2 seconds to the plate assigned for mechanical forces (+M Group), followed by 2 seconds of rest (15 cycles per minute with an average strain of 10% per cycle) in keeping with a normal human respiration.
(§7) In a parallel experiments, the cells were treated with anti-tumor drug after 72 hours of initial seeding (after 48 hours of mechanical stretching). The drug was dissolved in dimethyl sulfoxide (DMSO) at stock concentration and added to the respective media. […] The IC90 concentrations of the drugs were then added to prototype plate.
(§8) The +M Group was subjected to continuous mechanical stretching while the −M Group plate was placed in the same incubator for additional 24 hours.
(§9) In order to quantify viability, 6 wells per treatment group for ViCell counter and 6 wells per condition for MTS were assigned to determine the cell viability. Using Vi-Cell counter, assigned wells were filled with extra 210 μl of media to keep the volume constant in all the wells. Media from the assigned wells were transferred into a 24-well plate, and the well location was recorded. About 50 μl of trypLE was added to each well and allowed to trypsinize for a maximum of ten minutes. A small amount of media from the 24-well plate was transferred back into corresponding wells of the prototype plate to collect detached cells.
(§10) Media and cells were transferred back into the corresponding well of the 24-well plate. All wells were brought to a final volume of 1.25 mL with PBS and mixed well. About 1 ml of this cell suspension was transferred to ViCell counter to determine the number of viable cells.

H358 cells [6] = assay: Prototype 96-well plate, viable cell count (Vi-Cell) with and without mechanical forces; format: cell-based, human; conditions: for Effect of mechanical forces on viable cell count / cytotoxicity: 24 hours drug exposure, prototype 96-well plate; for Viable Cell Count after 24 hours of drug exposure, With forces (Ef) / Viable Cell Count after 24 hours of drug exposure, Without forces (E): drug at IC90, 24 hours; for Viable Cell Count after 24 hours of drug exposure, With forces (Ef): mechanical forces; for Viable Cell Count after 24 hours of drug exposure, Without forces (E): no forces
Experimental: as §6
In a parallel experiments, the cells were treated with anti-tumor drug after 72 hours of initial seeding (after 48 hours of mechanical stretching). The drug was dissolved in dimethyl sulfoxide (DMSO) at stock concentration and added to the respective media. An aliquot of 50 μl of drug stock solution was added to the well containing 100 μl of media (a 1:3 dilution) in a drug plate to get the desired IC90 concentration of the drug (Table 1). The IC90 concentrations of the drugs were then added to prototype plate.
as §8
In order to quantify viability, 6 wells per treatment group for ViCell counter and 6 wells per condition for MTS were assigned to determine the cell viability. Using Vi-Cell counter, assigned wells were filled with extra 210 μl of media to keep the volume constant in all the wells.

A549 cells [7] = assay: as above
Experimental: as §6, §7, §8, §9, §10

## N.N.[Cl][Pt][Cl] [Cisplatin]
A549 cells [1]
  Growth Rates, With forces: −0.211 per day
  Growth Rates, Without forces: −0.204 per day
  Effectiveness of The Drug, Without forces (E): 91.6%
  Effectiveness of The Drug, With forces (Ef): 74.7%
A549 cells [1]; listed as P00004
  Effectiveness of The Drug, Without forces (E): 91.6%
  Effectiveness of The Drug, With forces (Ef): 74.7%
NCI-H358 cells
  Growth Rates, With forces: −0.233 per day
  Growth Rates, Without forces: −0.027 per day
  Effectiveness of The Drug, Without forces (E): 72.4%
  Effectiveness of The Drug, With forces (Ef): 62.1%
[2]
  IC90: 50 µM

## COc1cccc2c1C(=O)c1c(O)c3c(c(O)c1C2=O)C[C@@](O)(C(=O)CO)C[C@@H]3O[C@H]1C[C@H](N)[C@H](O)[C@H](C)O1 [Doxorubicin]
A549 cells [3]
  MTS absorbance after 24 hours of drug exposure, With forces (Ef): 0.430
  MTS absorbance after 24 hours of drug exposure, Without forces (E): 0.697
H358 cells [4]
  MTS absorbance after 24 hours of drug exposure, With forces (Ef): 0.488
  MTS absorbance after 24 hours of drug exposure, Without forces (E): 0.629
A549 cells [1]
  Growth Rates, With forces: −0.268 per day
  Growth Rates, Without forces: −0.170 per day
  Effectiveness of The Drug, Without forces (E): 90.7%
  Effectiveness of The Drug, With forces (Ef): 78.7%
A549 cells [5]
  Effect of mechanical forces on viable cell count / cytotoxicity: Statistically significant reduction
H358 cells [6]
  Effect of mechanical forces on viable cell count / cytotoxicity: decrease in the ability
  Viable Cell Count after 24 hours of drug exposure, With forces (Ef): 7500.0
  Viable Cell Count after 24 hours of drug exposure, Without forces (E): 17750.0
NCI-H358 cells
  Growth Rates, With forces: −0.357 per day
  Growth Rates, Without forces: −0.031 per day
  Effectiveness of The Drug, Without forces (E): 72.7%
  Effectiveness of The Drug, With forces (Ef): 73.9%
[2]
  IC90: 30 µM

## COc1cc2c(Nc3ccc(Br)cc3F)ncnc2cc1OCC1CCN(C)CC1 [Zactima]
A549 cells [3]; A549, drug at IC90, 24 hours, 490 nm, mechanical forces
  MTS absorbance after 24 hours of drug exposure, With forces (Ef): 0.307
A549 cells [3]; A549, drug at IC90, 24 hours, 490 nm, no forces
  MTS absorbance after 24 hours of drug exposure, Without forces (E): 0.495
H358 cells [4]
  MTS absorbance after 24 hours of drug exposure, With forces (Ef): 0.368
  MTS absorbance after 24 hours of drug exposure, Without forces (E): 0.536
A549 cells [1]
  Growth Rates, With forces: −0.398 per day
  Growth Rates, Without forces: −0.055 per day
  Effectiveness of The Drug, Without forces (E): 86.8%
  Effectiveness of The Drug, With forces (Ef): 85.6%
A549 cells [7]; 24 hours drug exposure, prototype 96-well plate
  Effect of mechanical forces on viable cell count / cytotoxicity: remained unaffected
A549 cells [7]; drug at IC90, 24 hours, mechanical forces
  Viable Cell Count after 24 hours of drug exposure, With forces (Ef): 15625.0
A549 cells [7]; drug at IC90, 24 hours, no forces
  Viable Cell Count after 24 hours of drug exposure, Without forces (E): 23333.3
H358 cells [6]
  Effect of mechanical forces on viable cell count / cytotoxicity: decrease in the ability
  Viable Cell Count after 24 hours of drug exposure, With forces (Ef): 11000.0
  Viable Cell Count after 24 hours of drug exposure, Without forces (E): 22000.0
NCI-H358 cells
  Growth Rates, With forces: −0.833 per day
  Growth Rates, Without forces: −0.163 per day
  Effectiveness of The Drug, Without forces (E): 81.6%
  Effectiveness of The Drug, With forces (Ef): 93.7%
NCI-H358 cells; listed as P00006
  Effectiveness of The Drug, Without forces (E): 81.6%
  Effectiveness of The Drug, With forces (Ef): 93.7%
[2]
  IC90: 50 µM
